This assay addresses T1, human LPA1 (Homo sapiens, UniProt Q92633).
T1 construct: the full-length cDNA for human LPA1 was obtained by PCR of the reverse transcription reaction; expressed in transfected cells
Put plainly: LPA1 calcium flux assay. The format is cell-based. The following applies: CHO cells expressing human LPA1, stimulated with 10 nM LPA; read-out: HLPA1 Ca Flux IC50. The procedure: A 1.1 kb cDNA encoding the human LPA1 receptor was cloned from human lung. Human lung RNA (Clontech Laboratories, Inc. USA) was reverse transcribed using the RETROscript kit (Ambion, Inc.) and the full-length cDNA for human LPA1 was obtained by PCR of the reverse transcription reaction. The nucleotide sequence of the cloned human LPA1 was determined by sequencing and confirmed to be identical to the published human LPA1 sequence (An et al. Biochenm. Biophys. Res. Commun. 231:619 (1997). The cDNA was cloned into the pCDNA5/FRT expression plasmid and transfected in CHO cells using lipofectamine 2000 (Invitrogen Corp., USA). Clones stably expressing human LPA1 were selected using hygromycin and identified as cells that show Ca-influx in response to LPA.
Human LPA1 or LPA3 expressing CHO cells are seeded at 20,000-45,000 cells per well in a 96-well poly-D-lysine coated plate one or two days before the assay. Prior to the assay, the cells are washed once with PBS and then cultured in serum-free media overnight. On the day of the assay, a calcium indicator dye (Calcium 4, Molecular Devices) in assay buffer (HBSS with Ca^2+ and Mg^2+ and containing 20 mM Hepes and 0.3% fatty-acid free human serum albumin) is added to each well and incubation continued for 1 hour at 37° C. 10 μl of test compounds in 2.5% DMSO are added to the cells and incubation continued at room temperature for 30 minutes. Cells are the stimulated by the addition of 10 nM LPA and intracellular Ca^2+ measured using the Flexstation 3 (Molecular Devices). IC50s are determined using Graphpad prism analysis of drug titration curves.

Bounds are passed on as bounds.

T1 sequence (Q92633 whole entry): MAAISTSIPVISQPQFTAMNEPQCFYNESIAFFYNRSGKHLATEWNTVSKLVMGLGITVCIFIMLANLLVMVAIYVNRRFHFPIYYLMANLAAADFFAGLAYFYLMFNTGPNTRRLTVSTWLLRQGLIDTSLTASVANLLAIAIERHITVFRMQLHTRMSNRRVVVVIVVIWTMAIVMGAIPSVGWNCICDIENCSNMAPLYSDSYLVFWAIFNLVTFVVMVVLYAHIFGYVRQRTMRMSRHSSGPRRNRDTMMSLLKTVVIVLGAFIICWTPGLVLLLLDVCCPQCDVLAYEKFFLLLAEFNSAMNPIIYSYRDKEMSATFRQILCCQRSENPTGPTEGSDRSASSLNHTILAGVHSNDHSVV

Usually IC50 stands for the midpoint of a concentration-inhibition curve. Consider `Cc1noc(-c2ccc(-c3ccc(C4(C(=O)O)CC4)cc3)cc2)c1NC(C)CCc1cccc(Cl)c1` (single isomer, unassigned) [Compound 1-240, 1-(4′-{4-[3-(3-Chloro-phenyl)-1-methyl-propylamino]-3-methyl-isoxazol-5-yl}-biphenyl-4-yl)-cyclopropanecarboxylic acid], for which the IC50 was < 300 nM.

Regarding `Cc1noc(-c2ccc(-c3ccc(C4(C(=O)O)CC4)cc3)cc2)c1C(O)C(F)(F)CCc1ccccc1` (single isomer, unassigned) [Compound 1-254, 1-{4′-[4-(2,2-Difluoro-1-hydroxy-4-phenyl-butyl)-3-methyl-isoxazol-5-yl]-biphenyl-4-yl}-cyclopropanecarboxylic acid], the IC50 was in the range of 300 to 1000 nM.

For `Cc1noc(-c2ccc(-c3ccc(C4(C(=O)O)CC4)cc3)cc2)c1/C=C/[S+]([O-])Cc1ccccc1` (single isomer, unassigned) [Compound 1-262, 1-(4′-{3-Methyl-4-[(E)-2-(phenylmethanesulfinyl)-vinyl]-isoxazol-5-yl}-biphenyl-4-yl)-cyclopropanecarboxylic acid], the IC50 is < 300 nM.

Regarding `Cc1noc(-c2ccc(-c3ccc(C4(C(=O)O)CC4)cc3)cc2)c1/C=C/[S+]([O-])Cc1ccccc1` (single isomer, unassigned) [Compound 1-263, 1-(4′-{3-Methyl-4-[(E)-2-(phenylmethanesulfinyl)-vinyl]-isoxazol-5-yl}-biphenyl-4-yl)-cyclopropanecarboxylic acid], the IC50 lay within 1000 to 50000 nM.

As for `Cc1noc(-c2ccc(-c3ccc(C4(C(=O)O)CC4)cc3)cc2)c1NC(C)C(O)Cc1ccccc1` (single isomer, unassigned) [Compound 1-282, 1-{4′-[4-(2-Hydroxy-1-methyl-3-phenyl-propylamino)-3-methyl-isoxazol-5-yl]-biphenyl-4-yl}-cyclopropanecarboxylic acid], the IC50 is < 300 nM.

As to `Cc1noc(-c2ccc(-c3ccc(C4(C(=O)O)CC4)cc3)cc2)c1NC(C)C(O)Cc1ccccc1` (single isomer, unassigned) [Compound 1-283, 1-{4′-[4-(2-Hydroxy-1-methyl-3-phenyl-propylamino)-3-methyl-isoxazol-5-yl]-biphenyl-4-yl}-cyclopropanecarboxylic acid], the IC50 was < 300 nM.

Turning to `Cc1noc(-c2ccc(-c3ccc(C4(C(=O)O)CC4)cc3)cc2)c1CCC(=O)N(C)C(C)c1ccccc1` (stereo in doubt) [Compound 1-117, 1-[4′-(3-Methyl-4-{2-[methyl-((R)-1-phenyl-ethyl)-carbamoyl]-ethyl}-isoxazol-5-yl)-biphenyl-4-yl]-cyclopropanecarboxylic acid], the IC50 fell in the range of 1000 to 50000 nM.

As to `Cc1noc(-c2ccc(-c3cccc(C(=O)O)c3)cc2)c1NC(=O)CCc1ccccc1` [Compound 1-1, 4′-[3-Methyl-4-(3-phenyl-propionylamino)-isoxazol-5-yl]-biphenyl-3-carboxylic acid], the IC50 is 1000 to 50000 nM.

Regarding `Cc1noc(-c2ccc(-c3cccc(C(=O)O)c3)cc2)c1NC(=O)NCc1ccccc1` [Compound 1-2, 4′-[4-(3-Benzyl-ureido)-3-methyl-isoxazol-5-yl]-biphenyl-3-carboxylic acid], the IC50 lay within 1000 to 50000 nM.

For the molecule `Cc1noc(-c2ccc(-c3ccc(C4(C(=O)O)CC4)cc3)cc2)c1NC(=O)CC(C)C` [Compound 1-3, 1-{4′-[3-Methyl-4-(3-methyl-butyrylamino)-isoxazol-5-yl]-biphenyl-4-yl}-cyclopropanecarboxylic acid], the IC50 lay within 1000 to 50000 nM.

For the molecule `Cc1noc(-c2ccc(-c3ccc(C4(C(=O)O)CC4)cc3)cc2)c1NC(=O)CCc1ccccc1` [Compound 1-4, 1-{4′-[3-Methyl-4-(3-phenyl-propionylamino)-isoxazol-5-yl]-biphenyl-4-yl}-cyclopropanecarboxylic acid], the IC50 was in the range of 1000 to 50000 nM.

In the case of `Cc1noc(-c2ccc(-c3ccc(C4(C(=O)O)CC4)cc3)cc2)c1NC(=O)COc1ccccc1` [Compound 1-5, 1-{4′-[3-Methyl-4-(2-phenoxy-acetylamino)-isoxazol-5-yl]-biphenyl-4-yl}-cyclopropanecarboxylic acid], the concentration for half-maximal inhibition (IC50) lay in the range of 1000 to 50000 nM.

As to `Cc1noc(-c2ccc(-c3ccc(C4(C(=O)O)CC4)cc3)cc2)c1NC(=O)NCc1ccccc1` [Compound 1-6, 1-{4′-[4-(3-Benzyl-ureido)-3-methyl-isoxazol-5-yl]-biphenyl-4-yl}-cyclopropanecarboxylic acid], the IC50 was < 300 nM.

`Cc1noc(-c2ccc(-c3ccc(C4(C(=O)O)CC4)cc3)cc2)c1NC(=O)NC(C)(C)C` [Compound 1-7, 1-{4′-[4-(3-tert-Butyl-ureido)-3-methyl-isoxazol-5-yl]-biphenyl-4-yl}-cyclopropanecarboxylic acid]: the IC50 was < 300 nM.

Take `Cc1noc(-c2ccc(-c3ccc(C4(C(=O)O)CC4)cc3)cc2)c1NC(=O)N(C)C(C)C` [Compound 1-8, 1-{4′-[4-(3-Isopropyl-3-methyl-ureido)-3-methyl-isoxazol-5-yl]-biphenyl-4-yl}-cyclopropanecarboxylic acid]: the IC50 fell in the range of 1000 to 50000 nM.

Take `Cc1noc(-c2ccc(-c3ccc(C4(C(=O)O)CC4)cc3)cc2)c1NC(=O)N(C)[C@H](C)c1ccccc1` [Compound 1-9, 1-(4′-{3-Methyl-4-[3-methyl-3-((R)-1-phenyl-ethyl)-ureido]-isoxazol-5-yl}-biphenyl-4-yl)-cyclopropanecarboxylic acid]: the IC50 lay within 1000 to 50000 nM.

For `Cc1noc(-c2ccc(-c3ccc(C4(C(=O)O)CC4)cc3)cc2)c1NC(=O)N[C@H](C)c1ccccc1` [Compound 1-11, 1-(4′-{3-Methyl-4-[3-((R)-1-phenyl-ethyl)-ureido]-isoxazol-5-yl}-biphenyl-4-yl)-cyclopropanecarboxylic acid], the 50% inhibitory concentration (IC50) was < 300 nM.

`Cc1noc(-c2ccc(-c3ccc(C4(C(=O)O)CC4)cc3)cc2)c1NC(=O)NCc1ccccc1F` [Compound 1-12, 1-(4′-{4-[3-(2-Fluoro-benzyl)-ureido]-3-methyl-isoxazol-5-yl}-biphenyl-4-yl)-cyclopropanecarboxylic acid]: the IC50 was < 300 nM.

With `Cc1noc(-c2ccc(-c3ccc(C4(C(=O)O)CC4)cc3)cc2)c1NC(=O)NCC(F)(F)F` [Compound 1-13, 1-(4′-{3-Methyl-4-[3-(2,2,2-trifluoro-ethyl)-ureido]-isoxazol-5-yl}-biphenyl-4-yl)-cyclopropanecarboxylic acid], the IC50 is > 50000 nM.

With `Cc1noc(-c2ccc(-c3ccc(C4(C(=O)O)CC4)cc3)cc2)c1NS(=O)(=O)Cc1ccccc1Cl` [Compound 1-14, 1-{4′-[4-(2-Chloro-phenylmethanesulfonylamino)-3-methyl-isoxazol-5-yl]-biphenyl-4-yl}-cyclopropanecarboxylic acid], the IC50 was 300 to 1000 nM.

Consider `Cc1noc(-c2ccc(-c3ccc(C4(C(=O)O)CC4)cc3)cc2)c1NC(=O)NCc1cc(C(F)(F)F)ccc1F` [Compound 1-15, 1-(4′-{4-[3-(2-Fluoro-5-trifluoromethyl-benzyl)-ureido]-3-methyl-isoxazol-5-yl}-biphenyl-4-yl)-cyclopropanecarboxylic acid], for which the IC50 lay within 1000 to 50000 nM.

Take `Cc1noc(-c2ccc(-c3ccc(C4(C(=O)O)CC4)cc3)cc2)c1NC(=O)NCc1c(F)cccc1F` [Compound 1-16, 1-(4′-{4-[3-(2,6-Difluoro-benzyl)-ureido]-3-methyl-isoxazol-5-yl}-biphenyl-4-yl)-cyclopropanecarboxylic acid]: the IC50 was in the range of 300 to 1000 nM.

For the origin of these results see patent US9624182B2, “Compounds as lysophosphatidic acid receptor antagonists” (Amira Pharmaceuticals, Inc., priority 2009, dated 2017).
